The text below walks through data of PubChem BioAssay AID2286 (Southern Research Specialized Biocontainment Screening …, 2010).

For assay [1], the system named is MAGI-CCR5 cells viability, CellTiter-Glo ATP luminescence. Nature of the assay: viability loss in fusion assay cells – cell-based, MAGI and MAGI-HeLa co-culture, cytotoxicity control for HIV-1 fusion inhibitor project, dose response (AID 2286).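 For minimum viability: 100% = median of DMSO vehicle wells with no ATP signal meaning 0%.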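 For viability: 100% = median of DMSO vehicle wells with no ATP signal meaning 0%.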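 Note: cells exposed to compound for at least 64 h before ATP readout.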
Assay in assay [2]: as above
Conditions: MAGI-CCR5 cells viability, CellTiter-Glo ATP luminescence; for minimum viability: measured here: MAGI minimum viability across doses. On the technique in general: Cellular ATP, detected with luciferase, serves as a proxy for viable cell number.

[3] abbreviates: measured here: MAGI + HeLa-R5-16 co-culture viability.
The mark [4] stands for this setting: MAGI-HeLa co-culture viability, at 50 µM, stronger effect = lower value.
Where [5] appears, read: at 12.5 µM, stronger effect = lower value.

One may read the CC50 as the concentration that lowers cell viability or growth by half. Usually viability stands for a read-out of living cells in per cent, often relative to untreated cells.

Activity calls are given as the source filed them.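 Rule for the calls: active = minimum cell viability of 80% or lower across the dose range, counted as toxic; inactive = minimum cell viability above 80%.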 A value given as a limit tells only on which side of the number the result lay.

Take `O=C(O)CN1C(=O)/C(=C\c2cc(Br)ccc2OCc2ccc(Cl)cc2Cl)SC1=S`: in assay [1] (setting [3]), the CC50 is 25.6 µM. The figures for the viability in assay [2] (setting [4]) and in assay [2] (at 50 µM (top of the series)) were 37.6% and 93.8% (inactive), respectively. Also, in assay [2] (at 50 µM, stronger effect = lower value), the minimum viability was found to be 93.8%.

Consider `O=C1/C(=C\c2ccc(O)c(O)c2)C(c2ccccc2)=NN1c1ccccc1`, for which the values for the CC50 in assay [1] and in assay [1] (setting [3]) were 38.4 µM and 48.7 µM, respectively. The viability in assay [2] (setting [4]) turned out to be 34.7%. This compound yielded a minimum viability in assay [2] (at 50 µM, stronger effect = lower value) of 28.1%.

For the compound `CCOc1ccc(CCNC(=O)c2ccc3c(=O)[nH]c4c(C(=O)NC(C)C)sc(=S)n4c3c2)cc1`, the CC50 in assay [1] was 37.2 µM. In addition, in assay [2] (setting [4]), the viability is 93.9%. The minimum viability in assay [2] (at 50 µM, stronger effect = lower value) is 45.6%.

As to `CCc1oc2ccccc2c1C(=O)c1cc(Br)c(O)c(Br)c1`, the CC50 in assay [1] is 43.5 µM; in assay [1] (setting [3]) it was over 50 µM. Further, the viability in assay [2] (setting [4]) worked out at 52.7%. The minimum viability in assay [2] (at 50 µM, stronger effect = lower value) amounted to 38.8%.

As to `O=C(NN1C(=O)/C(=C/c2ccc(O)cc2)SC1=S)c1ccccc1O`, the CC50 in assay [1] is 26.7 µM; in assay [1] (setting [3]), 41.3 µM. For the same compound, in assay [2] (setting [4]), the viability was 36.5%. Besides, the minimum viability in assay [2] (at 50 µM, stronger effect = lower value) was 27.6%.

With `CCOc1cc(/C=N/N=C2/NC(=O)C(CC(=O)O)S2)ccc1OCc1ccc(Cl)cc1` (stereo not given), the CC50 in assay [1] (setting [3]) was over 50 µM. For the same compound, the viability was 75.2% in assay [2] (setting [4]) and 101% (inactive) in assay [2] (at 50 µM (top of the series)). In addition, the minimum viability in assay [2] (setting [5]) came out at 85.4%.

Consider `Brc1ccc(N/N=C(/N=Nc2nn[nH]n2)c2ccccc2)cc1`, for which the values for the CC50 in assay [1] and in assay [1] (setting [3]) were 32.8 µM and 23.5 µM, respectively. For the same compound, the viability in assay [2] (setting [4]) came out at 20.1%. In assay [2] (at 50 µM, stronger effect = lower value), this compound gave a minimum viability of 44.6%.

With `O=C(O)C1Nc2ccc(Br)cc2C2C=CCC12` (stereo not given), the CC50 in assay [1] (setting [3]) was over 50 µM. Further, the viability in assay [2] (setting [4]) was 74.1%; in assay [2] (at 50 µM (top of the series)), 98% (inactive). The compound also displayed a minimum viability in assay [2] (at 0.2 µM, stronger effect = lower value) of 90.6%.

`COc1cc(/C=C2\SC(=O)N(Cc3ccc(F)cc3)C2=O)cc([N+](=O)[O-])c1O`: the CC50 in assay [1] was 28.7 µM; in assay [1] (setting [3]), over 50 µM. Moreover, the viability in assay [2] (setting [4]) amounted to 65.7%. For the same compound, in assay [2] (at 50 µM, stronger effect = lower value), the minimum viability stood at 41.9%.

Turning to `COc1cccc(OCCOc2ccc(/C=C3\C(=N)N4N=C(S(C)(=O)=O)SC4=NC3=O)cc2OC)c1`, the CC50 in assay [1] (setting [3]) was 35.8 µM. Also, the viability is 38% in assay [2] (setting [4]) and 97.2% (inactive) in assay [2] (at 50 µM (top of the series)). The minimum viability in assay [2] (at 3.13 µM, stronger effect = lower value) stood at 91.2%.

As for `COc1cc(/C=C(\C#N)c2nc3ccccc3s2)cc([N+](=O)[O-])c1O`, the CC50 in assay [1] is 38.1 µM. The viability in assay [2] (setting [4]) was determined as 101%. Moreover, in assay [2] (at 50 µM, stronger effect = lower value), the minimum viability came to 43.3%.

As for `CN(C)S(=O)(=O)c1cccc(-c2nn(-c3ccccc3)cc2/C=C2\SC(=S)NC2=O)c1`, the CC50 in assay [1] was 10 µM; in assay [1] (setting [3]), 25.5 µM. For the same compound, the viability in assay [2] (setting [4]) is 35.7%. This compound also registered a minimum viability in assay [2] (at 50 µM, stronger effect = lower value) of 27.8%.

With `CN(C)S(=O)(=O)c1cccc(-c2nn(-c3ccccc3)cc2/C=C2\SC(=S)N(CC(=O)O)C2=O)c1`, the CC50 in assay [1] (setting [3]) is over 50 µM. Besides, the viability in assay [2] (setting [4]) is 74.7%. Further, the minimum viability in assay [2] (at 50 µM, stronger effect = lower value) worked out at 68.6%.

Turning to `O=c1cc(-c2ccccc2Cl)oc2c(NS(=O)(=O)c3cc(Cl)cc(Cl)c3O)ccc(O)c12`, the CC50 in assay [1] was 5.61 µM; in assay [1] (setting [3]) it was 15.6 µM. Besides, in assay [2] (setting [4]), the viability amounted to 20.8%. In assay [2] (at 50 µM, stronger effect = lower value), this compound registered a minimum viability of 16.3%.

On to `O=C(Nc1cc(S(=O)(=O)N2CCCCC2)ccc1Cl)c1ccccc1NS(=O)(=O)c1ccc(F)cc1`, for which the CC50 was 2.49 µM in assay [1] and 7.38 µM in assay [1] (setting [3]). Moreover, the viability in assay [2] (setting [4]) amounted to 24.8%. The minimum viability in assay [2] (setting [5]) was determined as 19.1%.

On to `O=C(O)c1ccc(N2C(=O)/C(=C/c3ccc(-c4ccc([N+](=O)[O-])cc4)o3)C=C2c2ccccc2)cc1`, for which the CC50 was 35.4 µM in assay [1] and over 50 µM in assay [1] (setting [3]). Also, the viability in assay [2] (setting [4]) was determined as 65.7%. Further, the minimum viability in assay [2] (at 25 µM, stronger effect = lower value) came out at 46.8%.

As to `Cc1ccccc1C(=O)Nc1cccc(C(=O)N/N=C/c2cc(Cl)cc([N+](=O)[O-])c2O)c1`, the CC50 in assay [1] (setting [3]) was over 50 µM. Further, the viability in assay [2] (setting [4]) stood at 68.4%. This compound also had a minimum viability in assay [2] (at 50 µM, stronger effect = lower value) of 52.8%.

Regarding `CCc1ccc(S(=O)(=O)/N=C2\C=C(NS(=O)(=O)c3ccccc3)C(=O)c3ccccc32)cc1`, the CC50 in assay [1] (setting [3]) was over 50 µM. The viability in assay [2] (setting [4]) stood at 80%. For the same compound, in assay [2] (at 50 µM, stronger effect = lower value), the minimum viability came to 74.4%.

Consider `Cc1c2c(=O)n(-c3nc4ccccc4s3)nc-2cc(O)n1Cc1ccccc1`, for which the CC50 was 33.2 µM in assay [1] and over 50 µM in assay [1] (setting [3]). Besides, the viability in assay [2] (setting [4]) was found to be 49.2%. The same compound yielded a minimum viability in assay [2] (at 50 µM, stronger effect = lower value) of 42.5%.

As to `COc1cc(/C=C2\SC(=S)NC2=O)ccc1OS(=O)(=O)c1ccccc1`, the CC50 is 17.9 µM in assay [1] and 40.7 µM in assay [1] (setting [3]). Further, the viability in assay [2] (setting [4]) stood at 35.9%. In assay [2] (at 50 µM, stronger effect = lower value), this compound displayed a minimum viability of 24.8%.
